Measured values published in patent publication US8212038B2, “Methods and compositions for controlling ectoparasites” (HatchTech Pty Ltd., priority 2003, dated 2012).
Entries after “also recorded” stand apart in the source; their conditions may differ.

Experiments:
[1] = test system: Plutella xylostella eggs (Waite strain); test: Egg hatch of Plutella xylostella after dipping in inhibitor; settings: 10 mM
Protocol: The egg masses were then placed in a humid box at 25 degrees until egg hatch. Control eggs were exposed to absolute methanol as described above. At day 6 post laying the eggs were assessed from the different treatments and the percentage of egg hatch determined relative to the control as shown in Table 9.
Batches of Plutella eggs that were laid on either fine cloth or parafilm were dipped in a specific inhibitor solution for between 2-10 seconds, the excess solution was drained by blotting with dry tissue paper. The egg masses were then placed in a humid box at 25 degrees until egg hatch. Control eggs were exposed to absolute methanol as described above or not treated.
The egg masses were then placed in a humid box at 25 degrees until egg hatch. Control eggs were exposed to absolute ethanol as described above. On day 6 post laying the eggs were assessed from the different treatments and the percentage of egg hatch determined relative to the control.

lice eggs [2] = test: Time course in vitro lice egg hatching assay; assay type: in vivo, Pediculus humanus humanus
[3] = test system: proteases in the egg shell washings (ESW) of lice eggs; test: Gelatine substrate SDS-PAGE of egg shell washings treated with protease inhibitors; assay type: biochemical, Pediculus humanus humanus; settings: 10 mM inhibitor; 37° C., 3 hrs
Protocol: Within 12 hours of hatching 50 body lice eggs (Pediculus humanus humanus) were removed from the hair and placed in a 1 ml eppendorf tube. 20 μL of distilled water was added to the unhatched eggs and the preparation incubated for 30 minutes at 32° C. The 20 μL was recovered, freeze dried and stored at −70° C. A number of other samples were also collected as described. Hair samples from which unhatched lice eggs had been removed were also collected and incubated as described above. In addition, a sample of unhatched eggs and a sample of hair from which lice eggs had been removed were collected 7 days post laying (within 24 hrs of egg hatching). Both samples were washed in 10 mls of a 1% solution of sodium hypochlorite for 1 minute followed by a 5×1 minute washes in 25 mls in distilled water to remove the hypochlorite. These samples were then incubated in […] of distilled water as described above. In addition, a group of 25 lice eggs that were within 24 hours of hatching, were pretreated with 1% sodium hypochlorite, washed as described above and left to hatch. Within 1-2 hours after hatching the empty egg shells were incubated in 20 μL of distilled water as described above, the washings collected from the hatched egg shells and stored at −70° C. All of the extract samples were then freeze-dried overnight. The freeze-dried samples were then resuspended in […] of non-reducing SDS sample buffer, centrifuged at 10,000 g for 2 minutes and the entire 15 μL loaded on to 10% gelatine substrate SDS-PAGE gels. Gels were run at 4° C. for 10 minutes at 10 mA followed by a further 25 minutes at 15 mA per gel. They were then incubated for 2×20 minutes in a 2.5% Triton-X 100 solution followed by a three hour incubation in 0.1M Tris/HCl containing 1 mM CaCl2 pH 8.0. Activity was detected as clear areas on the gel the result of protease activity degrading the gelatine within the gel.
10% SDS-PAGE gelatine substrate gels were loaded with freeze dried egg shell washings from 100 lice eggs that had been resuspended in 50 μl of non-reducing sample buffer with samples run at 10 μl per lane. Gels were run at 4° C. for 10 minutes at 10 mA per gel followed by a further 25 minutes at 15 mA per gel. Gels were then cut into strips and each strip incubated for 2×20 minutes in a 2.5% Triton-X 100 solution containing a specific inhibitor. The inhibitors used were the serine protease inhibitor PMSF (5 mM), the metalloprotease inhibitor 1,10-phenanthroline (10 mM), the aspartic protease Pepstatin (5 μM) and the cysteine inhibitor E-64 (10 μM). The gel strips were then incubated in 0.1M Tris/HCl containing 1 mM CaCl2 pH 8 containing the different protease inhibitors for 3 hrs at 37° C., before being stained in Coomassie blue and destained as previously described.

lice eggs [4] = test: Standard lice egg-hatching assay with commercial head lice products; assay type: in vivo; settings: across the different stages of lice egg hatching (24-120 hr post laying)
Protocol: These three products were tested according to manufacturer's recommendations. Groups of eggs (24 hr old) were treated with the different products according to manufacturer's recommendations for the appropriate period of time (5-10 minutes) followed by a rinse for 1-2 minutes in 32° C. water. A positive controls (10 mM 1,10-phenanthroline) and two negative controls (no treatment and 20% Methanol) were also incorporated. Post exposure to the different products, the eggs were rinsed with warm water at 32° C. before being blotted dry on tissue paper and placed at 32° C., 70% RH and left to hatch. A second group of eggs, (48 hr old) were treated as previously described and also left to hatch. This process was repeated at 24 hr intervals on head lice eggs up to 120 hr post laying. This method of assaying inhibitors more closely mirrors the field situation where lice eggs will be at various stages of development on the head and permits the inhibitory effects to be observed on these different stages of the parasite.
These two products were tested according to manufacturer's recommendations. Groups of eggs (24 hr old) were treated with the different products according to manufacturer's recommendations for the appropriate period of time (5-10 minutes) followed by a rinse for 1-2 minutes in 32° C. water. Two negative controls (no treatment and 20% ethanol) were also incorporated. […]

[5] = test system: Helicoverpa armigera eggs (Tatura×Toowoomba strains); test: Egg hatch of Helicoverpa armigera after exposure to inhibitor; settings: 10 mM
Protocol: Several hundred Helicoverpa armigera eggs (Tatura×Toowoomba strains) were collected, that had been laid on fine mesh cloth over a 24 hour period.
Batches of Helicoverpa eggs were exposed to a specific inhibitor solution for between 2-10 seconds the excess solution drained by blotting with dry tissue paper. The egg masses were then placed in a humid box at 25 degrees until egg hatch. Control eggs were exposed to absolute methanol as described above.

lice eggs [6] = test: Lice egg-hatching bioassay, eggs treated once 5 days post laying; assay type: in vivo, Pediculus humanus humanus
Protocol: To evaluate the potential effects of protease inhibitors on lice egg hatching it was necessary to develop a reliable in vitro bioassay. Male and female clothing lice were fed on a rabbit as previously described. […] During this period the female lice laid their eggs and attached them to the woven cloth. All lice would then be removed and the eggs permitted to incubate for the following 5 days. […] The eggs would then progress through to their final stages of development and hatch. In untreated control eggs a reliable average percentage hatch of between 85-95 percent was obtained using the in vitro egg hatch assay. […] Lice eggs were laid onto cloth as described above. […] Protease inhibitor solutions were typically prepared as stock solutions and added fresh at the appropriate concentration. Specifically stock solutions were prepared as follows: 1,10-phenanthroline (200 mM in methanol) and Bestatin (5 mg/ml in methanol). In addition, the equivalent levels of the solvent were added to the non-inhibitor containing controls eggs to test for any buffer alone effects. Percentage hatch inhibition was calculated as the percentage reduction in egg hatch compared to the untreated control.

[7] = test system: head lice egg (Pediculus humanus capitus); test: Head lice egg hatching time course; assay type: in vivo; settings: 10 mM
Protocol: Tests were carried out to determine if metal chelating agent and metalloprotease inhibitor 1,10-phenanthroline could inhibit head lice egg (Pediculus humanus capitus) hatching as opposed to body lice. Head lice eggs were obtained by placing groups of both 1-2 adult male and 6-8 adult female head lice in separate wells in a 24 well petri dish containing cotton cloth. The petri dish was transferred to a humid incubator at 32° C., 70% RH for 12 hours to permit the female lice to lay their eggs. After 12 hours, all adult lice were removed from the petri dish wells and a series of time-course experiments conducted. A group of eggs (24 hr old) was treated for 10 minutes with 200 μl of a 10 mM solution of 1,10-phenanthroline. A control (i.e., no inhibitor treatment) group of eggs was also included. The eggs were removed from the inhibitor, blotted dry on tissue paper, placed at 32° C., 70% RH and left to hatch. A second group of eggs, (48 hr old) were treated as previously described and also left to hatch. This process was repeated at 24 hr intervals on head lice eggs up to 120 hr post laying. This method of assaying inhibitors more closely mirrors the field situation where lice eggs will be at various stages of development on the head and permits the inhibitory effects to be observed on these different stages of the parasite.

c1cnc2c(c1)ccc1cccnc12 [1,10-phenanthroline, reference compound]
inhibition of egg hatching in Plutella xylostella (in words) [1]: significantly inhibit egg hatching
inhibition of lice egg hatching (in words) (lice eggs [2]; 10 mM, following washing of eggs in water): still highly efficacious at inhibiting lice egg hatching
inhibition of lice egg hatching (in words) (lice eggs [2]; varying concentrations (10, 5, 2.5 mM) over the time course): Significant inhibition; also recorded: significantly inhibit egg hatching in lice at all time points examined
protease activity of ESW on gelatine SDS-PAGE after inhibitor treatment [3]: significant reduction in protease activity
ovicidal activity (in words) (lice eggs [4]): highly effective at inhibiting lice egg hatching
inhibition of egg hatching of Helicoverpa armigera (in words) [5]: able to inhibit egg hatching at 10 mM only
inhibition of egg hatching in lice (in words) (lice eggs [6]; 10 mM, eggs treated 5 days post laying): significantly inhibited egg hatching
inhibition of egg hatching in lice (in words) (lice eggs [6]; added within 24 hours of hatching, data not shown): variable inhibition of egg hatching
inhibition of egg hatching in head lice (in words) [7]: significantly inhibit egg hatching in head lice
